Results on 20 molecules are retold here after patent publication US12577248B2, “Substituted [1,2,4]triazolo[1,5-a]pyrazines as spleen tyrosine kinase inhibitors” (NANJING RUIJIE PHARMA CO., LTD., priority 2020, dated 2026).

As usually defined, the AUC(0-inf) is total exposure, with the tail of the curve extrapolated. Lower therefore signals low exposure. As a reminder, the AUC(0-t) is exposure summed from dosing to a finite time, without extrapolation to infinity. Low readings indicate less exposure, high ones more exposure. As a reminder, the Cmax is the peak of the concentration-time curve. Broadly, the Tmax is the time from dosing to the highest level. As a reminder, the half-life is how long it takes for the measured level to halve. A lower half-life goes with fast loss. Broadly, the bioavailability is dose-corrected exposure relative to a reference, in per cent. A word on the pIC50: it is the negative decadic logarithm of the IC50, by convention in mol/L.

pIC50: −log10 of the molar value.

Data set [1] in a line: In vivo pharmacokinetic analysis, single dose, ICR mice. The conditions noted are these: mouse, male, plasma; for AUC(0-inf) / AUC(0-t) / Cmax / Tmax / half-life: single dose; for bioavailability: PO 10 mg/kg vs IV 2 mg/kg, read-out: F % (bioavailability). On the procedure:
This is a single-dose study in ICR mice (male, n=9/administration) with intravenous and oral administration. Compound concentrations in plasma were measured and calculated for pharmacokinetic (PK) analysis via WinNonLin 6.4.

Another data set has as its target T1, Ba/F3-TEL-SYK cells (Homo sapiens, UniProt P43405).
T1 construct: fused on or other part: N-terminal part of TEL (ETV6) with its oligomerising PNT/SAM domain, fused before the SYK part that carries the kinase domain; P41212 (Transcription factor ETV6)
Description: Ba/F3-TEL-SYK cell-based assay (CellTiter-Glo proliferation). The conditions noted are these: 72 hr, read-out: BaF3 Cell assay IC50. On the procedure: CellTiter-Glo® Luminescent Cell Viability Assay was used to determine the number of viable cells in culture based on quantitation of the ATP present, as an indicator of metabolically active cells. The assay was performed in the following steps: First, the testing compounds were dissolved in DMSO to make a stock solution. The stocks (10 mM) were then diluted to varying concentrations: […], 0.305 and 0.102 μM. An aliquot of 0.2 μl of diluted compounds were added to the 384 well assay plate. Second, added 40 μl of cell suspension with 800 Ba/F3-TEL-SYK cells into each well and incubated the plate at 37° C., 5% CO2 for 72 hr. Then, added 20 μl Cell Titer-Glo Reagent into each well of the cell culture plate. Mixed the contents for 2 min on an orbital shaker to lyse cells, and rest the plate at room temperature for 30 min. Finally, luminescence values were obtained using an Envision 2104 plate reader (PerkinElmer) and calculated the average data and Standard Deviation (SD) of DMSO and Reference (GS-9973, 1 μM) as high control and low control. To determine the IC50 value, fit the data using non-linear regression equation.
In general terms: ATP-based viability assays read luminescence as a measure of living cells.

The target of another data set is SYK kinase (Homo sapiens, UniProt P43405). Description: SYK kinase assay (HTRF KinEASE-TK). To be noted: class symbols, read-out: Syk inhibition IC50. Format: biochemical. The method, then: A homogeneous time-resolved fluorescence (HTRF) assay was performed to assess the potential inhibitory effect of compounds on SYK kinase. The HTRF KinEASE-TK kit (Cisbio) was used. During the step, kinase will phosphorylate the substrate, and the resulting fluorescence signal is proportional to the phosphorylation level. The assay was performed in the following steps: First, the testing compounds were diluted 1:3 in succession in DMSO. The 1× kinase buffer contained 1 volume of 5× enzymatic buffer with 4 volumes of distilled water, 5 mM MgCl2, 1 mM MnCl2, and 1 mM DTT. The assays were assembled in 384 well plates (784075, Greiner) where 10 nl of compound solutions were added into each well, and the plates were centrifuged at 1000 g for 1 min. Then, 5 μl of 2×SYK in 1× kinase buffer were added to each well. The plates were centrifuged at 1000 g for 30 s and then incubated at room temperature for 10 min. The reaction was initiated by adding […] of premixed 2×TK-substrate-biotin and ATP mixture in 1× kinase buffer to the assay plates. The plates were centrifuged at 1000 g for 30 s and incubated at room temperature for 30 min. Phosphorylation was detected by adding 5 μl of 4×Sa-XL 665 in HTRF detection buffer into each well of the assay plates. The plates were centrifuged plates at 1000 g for 30 sec, and then incubated at room temperature for 1 h. Finally, the plates were read on an Envision 2104 plate reader (PerkinElmer) and the fluorescence signal was measured at 615 nm (Cryptate) and 665 nm (XL665).
A ratio (665/615 nm) was calculated for each well. The inhibition ratio was calculated as follow: […]
IC50 was calculated by fitting % Inhibition values and log of compound concentrations to nonlinear regression (dose response−variable slope) with GraphPad 6.0.

As for `COc1cc(Nc2nc(-c3ccc4cc[nH]c4c3)cn3ncnc23)ccc1N1CCOCC1` [I2, 6-(1H-indol-6-yl)-N-(3-methoxy-4-morpholinophenyl)-[1,2,4]triazolo[1,5-a]pyrazin-8-amine], in data set [1] (IV Administration (2 mg/kg)), the AUC(0-inf) is 1010 ng·h/mL, the area under the curve AUC(0-t) came out at 1010 ng·h/mL, the highest level (Cmax) was 1870 ng/mL and the Tmax came out at 4.8 min. In data set [1] (IV Administration (2 mg/kg)), this molecule gave a half-life of 34.2 min. Moreover, in data set [1] (PO Administration (10 mg/kg)), the AUC(0-inf) came to 2260 ng·h/mL, the AUC(0-t) was determined as 1960 ng·h/mL, the Cmax is 696 ng/mL and the Tmax was 15 min. For the same molecule, the half-life in data set [1] (PO Administration (10 mg/kg)) was 168 min. For the same molecule, the bioavailability in data set [1] is 38.9%. Also, the GI50 on Ba/F3-TEL-SYK cells was not above 50 nM. For the same molecule, the pIC50 at SYK kinase was not below 7.30.

In the case of `c1nc2c(Nc3ccc(N4CCN(C5COC5)CC4)cc3)nc(-c3ccc4cn[nH]c4c3)cn2n1` [I53, 6-(1H-indazol-6-yl)-N-(4-(4-(oxetan-3-yl)piperazin-1-yl)phenyl)-[1,2,4]triazolo[1,5-a]pyrazin-8-amine], in data set [1] (IV Administration (2 mg/kg)), the area under the curve AUC(0-inf) amounted to 2300 ng·h/mL, the area under the curve AUC(0-t) amounted to 2290 ng·h/mL, the Cmax amounted to 3960 ng/mL and the Tmax was 4.8 min. For the same molecule, the half-life in data set [1] (IV Administration (2 mg/kg)) was 590 min. Also, in data set [1] (PO Administration (10 mg/kg)), the AUC(0-inf) was 7370 ng·h/mL, the AUC(0-t) was 7330 ng·h/mL, the Cmax is 7520 ng/mL and the Tmax came to 15 min. Moreover, the half-life in data set [1] (PO Administration (10 mg/kg)) was 265 min. Moreover, in data set [1], the bioavailability came out at 64.2%. The GI50 at Ba/F3-TEL-SYK cells was not above 50 nM. Also, the pIC50 at SYK kinase was not below 7.30.

As for `CCOc1cc(Nc2nc(-c3ccc4cn[nH]c4c3)cn3ncnc23)ccc1N1CCOCC1` [I73, N-(3-ethoxy-4-morpholinophenyl)-6-(1H-indazol-6-yl)-[1,2,4]triazolo[1,5-a]pyrazin-8-amine], at Ba/F3-TEL-SYK cells, the GI50 lay in the range of 50 to 500 nM. The pIC50 at SYK kinase is not below 7.30.

For `CC(C)N1C[C@@H]2C[C@@H]1CN2c1ccc(Nc2nc(-c3ccc4[nH]ccc4c3)cn3ncnc23)cc1` [I70, 6-(1H-indol-5-yl)-N-(4-((1S,4R)-5-isopropyl-2,5-diazabicyclo[2.2.1]heptan-2-yl)phenyl)-[1,2,4]triazolo[1,5-a]pyrazin-8-amine], the GI50 on Ba/F3-TEL-SYK cells fell in the range of 500 to 5000 nM. Besides, on SYK kinase, the pIC50 was 6.30 to 7.30.

As for `COc1cc(Nc2nc(-c3ccc4cn[nH]c4c3)cn3ncnc23)ccc1N1CCN(C)CC1` [I12, 6-(1H-indazol-6-yl)-N-(3-methoxy-4-(4-methylpiperazin-1-yl)phenyl)-[1,2,4]triazolo[1,5-a]pyrazin-8-amine], the GI50 on Ba/F3-TEL-SYK cells was not above 50 nM. Also, the pIC50 on SYK kinase is not below 7.30.

Take `COc1cc(Nc2nc(-c3ccc4cn[nH]c4c3)cn3ncnc23)ccc1N1CCN(C(C)C)CC1` [I17, 6-(1H-indazol-6-yl)-N-(4-(4-isopropylpiperazin-1-yl)-3-methoxyphenyl)-[1,2,4]triazolo[1,5-a]pyrazin-8-amine]: the GI50 at Ba/F3-TEL-SYK cells lay within 50 to 500 nM. Moreover, the pIC50 at SYK kinase is not below 7.30.

For the molecule `CC(C)Oc1cc(Nc2nc(-c3ccc4cn[nH]c4c3)cn3ncnc23)ccc1N1CCOCC1` [I75, 6-(1H-indazol-6-yl)-N-(3-isopropoxy-4-morpholinophenyl)-[1,2,4]triazolo[1,5-a]pyrazin-8-amine], at Ba/F3-TEL-SYK cells, the GI50 was 500 to 5000 nM. In addition, the pIC50 at SYK kinase was 6.30 to 7.30.

For `CC1(O)CCN(c2ccc(Nc3nc(-c4ccc5cn[nH]c5c4)cn4ncnc34)cc2)CC1` [I23, 1-(4-((6-(1H-indazol-6-yl)-[1,2,4]triazolo[1,5-a]pyrazin-8-yl)amino)phenyl)-4-methylpiperidin-4-ol], at Ba/F3-TEL-SYK cells, the GI50 fell in the range of 50 to 500 nM. Besides, on SYK kinase, the negative-log IC50 (pIC50) was not below 7.30.

Turning to `COc1cc(Nc2nc(-c3ccc4c(c3)N=CC4)cn3ncnc23)ccc1N1CC2(COC2)C1` [I62, 6-(3H-indol-6-yl)-N-(3-methoxy-4-(2-oxa-6-azaspiro[3.3]heptan-6-yl)phenyl)-[1,2,4]triazolo[1,5-a]pyrazin-8-amine], on Ba/F3-TEL-SYK cells, the GI50 was in the range of 50 to 500 nM. Also, at SYK kinase, the pIC50 was not below 7.30.

As to `COc1cc(Nc2nc(-c3ccc4cc[nH]c4c3)cn3ncnc23)ccc1N1CC2CC1CN2C1COC1` (centres unmarked) [I76, 6-(1H-indol-6-yl)-N-(3-methoxy-4-(5-(oxetan-3-yl)-2,5-diazabicyclo[2.2.1]heptan-2-yl)phenyl)-[1,2,4]triazolo[1,5-a]pyrazin-8-amine], on Ba/F3-TEL-SYK cells, the GI50 fell in the range of 50 to 500 nM. For the same molecule, the negative-log IC50 (pIC50) at SYK kinase was not below 7.30.

Turning to `c1nc2c(Nc3ccc(N4CC5(COC5)C4)cc3)nc(-c3ccc4cc[nH]c4c3)cn2n1` [I61, N-(4-(2-oxa-6-azaspiro[3.3]heptan-6-yl)phenyl)-6-(1H-indol-6-yl)-[1,2,4]triazolo[1,5-a]pyrazin-8-amine], at Ba/F3-TEL-SYK cells, the GI50 was 50 to 500 nM. In addition, the pIC50 at SYK kinase is not below 7.30.

For the molecule `CCN1CCN(c2ccc(Nc3nc(-c4ccc5cn[nH]c5c4)cn4ncnc34)cc2OC)CC1` [I16, N-(4-(4-ethylpiperazin-1-yl)-3-methoxyphenyl)-6-(1H-indazol-6-yl)-[1,2,4]triazolo[1,5-a]pyrazin-8-amine], the GI50 on Ba/F3-TEL-SYK cells is not above 50 nM. Besides, on SYK kinase, the pIC50 was not below 7.30.

For the molecule `COc1cc(Nc2nc(-c3ccc4cn[nH]c4c3)cn3ncnc23)ccc1N1CCS(=O)(=O)CC1` [I24, 4-(4-((6-(1H-indazol-6-yl)-[1,2,4]triazolo[1,5-a]pyrazin-8-yl)amino)-2-methoxyphenyl)thiomorpholine 1,1-dioxide], on Ba/F3-TEL-SYK cells, the GI50 is not above 50 nM. Also, the negative-log IC50 (pIC50) at SYK kinase is not below 7.30.

As for `CCOc1cc(Nc2nc(-c3ccc4cc[nH]c4c3)cn3ncnc23)ccc1N1CC2CC1CN2C1COC1` (centres unmarked) [I79, N-(3-ethoxy-4-(5-(oxetan-3-yl)-2,5-diazabicyclo[2.2.1]heptan-2-yl)phenyl)-6-(1H-indol-6-yl)-[1,2,4]triazolo[1,5-a]pyrazin-8-amine], the GI50 on Ba/F3-TEL-SYK cells lay in the range of 50 to 500 nM. In addition, the pIC50 at SYK kinase was not below 7.30.

Take `FC(F)(F)Oc1cc(Nc2nc(-c3ccc4cc[nH]c4c3)cn3ncnc23)ccc1N1CC2CC1CN2C1COC1` (centres unmarked) [I77, 6-(1H-indol-6-yl)-N-(4-(5-(oxetan-3-yl)-2,5-diazabicyclo[2.2.1]heptan-2-yl)-3-(trifluoromethoxy)phenyl)-[1,2,4]triazolo[1,5-a]pyrazin-8-amine]: the GI50 on Ba/F3-TEL-SYK cells is more than 5000 nM. For the same molecule, the pIC50 at SYK kinase is 6.30 to 7.30.

Turning to `COc1cc(Nc2nc(-c3ccc4c(c3)OC(C)(C)C(=O)N4)cn3ncnc23)ccc1N1CCOCC1` [I26, 7-(8-((3-methoxy-4-morpholinophenyl)amino)-[1,2,4]triazolo[1,5-a]pyrazin-6-yl)-2,2-dimethyl-2H-benzo[b][1,4]oxazin-3(4H)-one], the GI50 on Ba/F3-TEL-SYK cells lay within 50 to 500 nM. Also, on SYK kinase, the negative-log IC50 (pIC50) was 6.30 to 7.30.

As to `O=C1COc2cc(-c3cn4ncnc4c(Nc4ccc(N5CCOCC5)cc4)n3)ccc2N1` [I29, 7-(8-((4-morpholinophenyl)amino)-[1,2,4]triazolo[1,5-a]pyrazin-6-yl)-2H-benzo[b][1,4]oxazin-3(4H)-one], the GI50 at Ba/F3-TEL-SYK cells is 50 to 500 nM. Also, the pIC50 at SYK kinase is not below 7.30.

In the case of `COc1ccc(Nc2nc(-c3ccc4cn[nH]c4c3)cn3ncnc23)cc1OC` [I3, N-(3,4-dimethoxyphenyl)-6-(1H-indazol-6-yl)-[1,2,4]triazolo[1,5-a]pyrazin-8-amine], the GI50 on Ba/F3-TEL-SYK cells is not above 50 nM. At SYK kinase, the pIC50 was not below 7.30.

As to `c1nc2c(Nc3ccc(N4CC5(COC5)C4)cc3)nc(-c3ccc4cn[nH]c4c3)cn2n1` [I59, N-(4-(2-oxa-6-azaspiro[3.3]heptan-6-yl)phenyl)-6-(1H-indazol-6-yl)-[1,2,4]triazolo[1,5-a]pyrazin-8-amine], at Ba/F3-TEL-SYK cells, the GI50 lay within 50 to 500 nM. Also, the pIC50 on SYK kinase was 6.30 to 7.30.

Regarding `COc1cc(Nc2nc(-c3cncc(N)n3)cn3ncnc23)ccc1N1CCN(C2COC2)CC1` [I56, 6-(6-aminopyrazin-2-yl)-N-(3-methoxy-4-(4-(oxetan-3-yl)piperazin-1-yl)phenyl)-[1,2,4]triazolo[1,5-a]pyrazin-8-amine], the GI50 on Ba/F3-TEL-SYK cells is 500 to 5000 nM. Besides, the pIC50 at SYK kinase was 6.30 to 7.30.
